For assay [1], the target named is T1, human recombinant histamine H1 receptor (Homo sapiens, UniProt P35367).
T1 construct: expressed in transfected cells; host or cells: CHO cells
The assay can be described thus: Histamine H1 radioligand binding ([3H]Pyrilamine). As to conditions: compound at 1 μM; read-out: Histamine Binding (1 μM) H1, percent inhibition of specific binding. An outline of the steps: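 Membranes from CHO cells expressing the receptor were incubated with compound and 1.2 nM [3H]pyrilamine for 180 min at 25 °C in 50 mM Tris-HCl pH 7.4 with MgCl2, NaCl and sucrose; 1 μM pyrilamine defined non-specific binding. Filter-bound radioactivity was counted.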

Assay [2] deals with T2, human recombinant histamine H2 receptor (Homo sapiens, UniProt P25021).
T2 construct: expressed in transfected cells; host or cells: CHO-K1 cells
The assay can be described thus: Histamine H2 radioligand binding ([125I]Aminopotentidine). To be noted: compound at 1 μM; read-out: Histamine Binding (1 μM) H2, percent inhibition of specific binding. An outline of the steps: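 Membranes from CHO-K1 cells expressing recombinant human H2 receptor, in 50 mM phosphate buffer pH 7.4, incubated with 0.1 nM [125I]aminopotentidine for 120 min at 25 °C; nonspecific binding defined with 3 μM tiotidine.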

Assay [3] concerns the target T3, human recombinant adrenergic α1D receptor (Homo sapiens, UniProt P25100).
T3 construct: expressed in transfected cells; host or cells: HEK-293 cells
T3 sequence (P25100 1-572): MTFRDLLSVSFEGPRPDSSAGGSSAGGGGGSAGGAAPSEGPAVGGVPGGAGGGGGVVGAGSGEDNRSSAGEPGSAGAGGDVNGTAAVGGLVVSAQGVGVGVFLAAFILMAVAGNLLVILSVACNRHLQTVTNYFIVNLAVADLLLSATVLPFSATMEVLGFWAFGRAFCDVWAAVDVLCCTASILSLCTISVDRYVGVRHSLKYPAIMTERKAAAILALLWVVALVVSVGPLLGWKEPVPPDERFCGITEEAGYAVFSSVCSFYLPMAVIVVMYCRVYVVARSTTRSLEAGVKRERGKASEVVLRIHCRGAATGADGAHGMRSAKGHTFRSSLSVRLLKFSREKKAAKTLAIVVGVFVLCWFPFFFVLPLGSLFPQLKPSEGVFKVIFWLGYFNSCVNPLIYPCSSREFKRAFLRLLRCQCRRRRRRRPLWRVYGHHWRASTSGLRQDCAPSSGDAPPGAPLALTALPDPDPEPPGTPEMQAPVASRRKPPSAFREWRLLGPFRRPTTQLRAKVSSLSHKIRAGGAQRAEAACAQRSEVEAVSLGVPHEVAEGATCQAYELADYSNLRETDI
Put plainly: Adrenergic alpha1D radioligand binding ([3H]Prozosin). To be noted: compound at 1 μM; read-out: Adrenergic (1 μM) α1D, percent inhibition of specific binding. The method, then: To evaluate in radioligand binding assays the activity of compounds of the invention, human recombinant adrenergic α1D receptor expressed in human embryonic kidney (HEK-293) cells (Kenny, B. A. et al. Br. J. Pharmacol. 115(6):981, 1995) in a 50 mM Tris-HCl buffer, pH 7.4, was used. Compounds of invention were incubated with 0.6 nM [^3H]Prozosin for 60 min. at 25° C. Non-specific binding was estimated in the presence of 10 μM phentolamine. Receptor proteins were filtered and washed, the filters were then counted to determine [^3H]Prozosin specifically bound. Compounds were screened at 1 μM or lower, using 1% DMSO as vehicle. Biochemical assay results are presented as the percent inhibition of specific binding in Table 5.

The target in assay [4] is T4, human recombinant serotonin (5-Hydroxytryptamine) 5-HT6 receptor (Homo sapiens, UniProt P50406).
T4 construct: expressed in transfected cells; host or cells: human HeLa cells
Put plainly: Serotonin 5-HT6 radioligand binding ([3H]LSD). To be noted: compound at 1 μM; read-out: Serotonin (1 μM) 5-HT6, percent inhibition of specific binding. An outline of the steps:
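Human recombinant 5-HT6 receptor from HeLa cells incubated with 1.5 nM [3H]LSD for 120 min at 37° C in 50 mM Tris-HCl pH 7.4, 150 mM NaCl, 2 mM ascorbic acid, 0.001% BSA. Nonspecific binding defined with 5 μM serotonin; bound ligand counted after filtration.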

For 19 compounds, inhibition results are on record in patent US9481676B2, “Azepino[4,5-B]indoles and methods of use” (Medivation Technologies, Inc., priority 2008, dated 2016).

As usually defined, the inhibition is the drop in the measured response relative to a control, in per cent.

Structures are written as SMILES.

T4 sequence (P50406 whole entry): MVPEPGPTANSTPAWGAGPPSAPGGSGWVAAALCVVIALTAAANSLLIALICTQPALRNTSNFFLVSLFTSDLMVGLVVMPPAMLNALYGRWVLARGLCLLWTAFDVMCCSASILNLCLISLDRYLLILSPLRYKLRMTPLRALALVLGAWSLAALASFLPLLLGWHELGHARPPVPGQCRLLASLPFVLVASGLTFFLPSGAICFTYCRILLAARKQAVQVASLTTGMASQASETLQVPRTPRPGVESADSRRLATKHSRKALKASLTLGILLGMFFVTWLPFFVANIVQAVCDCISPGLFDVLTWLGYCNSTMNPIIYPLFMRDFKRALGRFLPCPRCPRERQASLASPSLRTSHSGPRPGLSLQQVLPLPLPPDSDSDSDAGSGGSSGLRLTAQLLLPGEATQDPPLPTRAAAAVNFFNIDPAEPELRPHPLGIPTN
T1 sequence (P35367 whole entry): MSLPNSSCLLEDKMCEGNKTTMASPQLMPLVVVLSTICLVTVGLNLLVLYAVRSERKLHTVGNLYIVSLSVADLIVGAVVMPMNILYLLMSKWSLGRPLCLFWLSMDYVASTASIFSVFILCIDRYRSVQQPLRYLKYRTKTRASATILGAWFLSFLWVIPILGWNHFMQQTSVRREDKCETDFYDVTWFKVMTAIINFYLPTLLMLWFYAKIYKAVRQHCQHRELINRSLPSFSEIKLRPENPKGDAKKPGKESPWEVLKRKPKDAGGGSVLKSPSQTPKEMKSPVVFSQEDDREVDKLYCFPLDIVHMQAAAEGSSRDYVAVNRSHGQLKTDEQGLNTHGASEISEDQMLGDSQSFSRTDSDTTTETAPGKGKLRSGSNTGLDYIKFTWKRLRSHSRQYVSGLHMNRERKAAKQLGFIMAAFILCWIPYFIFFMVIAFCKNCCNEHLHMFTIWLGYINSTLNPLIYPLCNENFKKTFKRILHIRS
T2 sequence (P25021 whole entry): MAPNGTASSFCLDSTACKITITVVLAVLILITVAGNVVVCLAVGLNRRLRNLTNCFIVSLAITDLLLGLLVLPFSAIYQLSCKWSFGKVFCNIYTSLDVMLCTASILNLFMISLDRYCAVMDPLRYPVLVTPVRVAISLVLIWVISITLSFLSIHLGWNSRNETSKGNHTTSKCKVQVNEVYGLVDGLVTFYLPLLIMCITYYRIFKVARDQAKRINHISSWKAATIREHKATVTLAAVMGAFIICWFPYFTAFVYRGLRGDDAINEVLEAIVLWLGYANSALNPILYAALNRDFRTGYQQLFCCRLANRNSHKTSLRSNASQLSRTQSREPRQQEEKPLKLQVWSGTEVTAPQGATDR

As for `C/C(=C\n1c2c(c3cc(C)ccc31)CCN(C)CC2)c1ccc(Cl)cc1` [Compound No. 33, 6-((E)-2-(4-chlorophenyl)prop-1-enyl)-1,2,3,4,5,6-hexahydro-3,9-dimethylazepino[4,5-b]indole], the inhibition at 1 µM came to 87% in assay [1], 101% in assay [2], 99% in assay [3] and 98% in assay [4].
For `CN1CCc2c(n(CCc3ccccc3Cl)c3ccc(Cl)cc23)CC1` [Compound No. 29, 6-(2-chlorophenethyl)-9-chloro-1,2,3,4,5,6-hexahydro-3-methylazepino[4,5-b]indole], the inhibition at 1 µM in assay [1] turned out to be 98%; in assay [2], 105%; in assay [3] it was 71%; in assay [4] it was 103%.
As to `C=C(Cn1c2c(c3cc(Cl)ccc31)CCN(C)CC2)c1ccc(Cl)cc1` [Compound No. 35, 9-chloro-6-(2-(4-chlorophenyl)allyl)-3-methyl-1,2,3,4,5,6-hexahydroazepino[4,5-b]indole], the inhibition at 1 µM was 100% in assay [1], 104% in assay [2], 96% in assay [3] and 102% in assay [4].
For the compound `CN1CCc2c(n(CC(O)c3ccccc3F)c3ccc(Cl)cc23)CC1` (stereo not shown) [Compound No. 40, 2-(9-chloro-2,3,4,5-tetrahydro-3-methylazepino[4,5-b]indol-6(1H)-yl)-1-(2-fluorophenyl)ethanol], the inhibition at 1 µM is 101% in assay [1], 61% in assay [2], 64% in assay [3] and 101% in assay [4].
With `Cc1ccc2c(c1)c1c(n2CC(O)c2ccccc2)CCN(C)CC1` (stereo not shown) [Compound No. 25, 2-(2,3,4,5-tetrahydro-3,9-dimethylazepino[4,5-b]indol-6(1H)-yl)-1-phenylethanol], the inhibition at 1 µM in assay [1] amounted to 91%; in assay [2], 47%; in assay [3], 96%; in assay [4], 93%.
Regarding `CN1CCc2c(n(CC(C)(O)c3ccc(F)cc3)c3ccc(Cl)cc23)CC1` (stereo not shown) [Compound No. 13, 1-(9-chloro-2,3,4,5-tetrahydro-3-methylazepino[4,5-b]indol-6(1H)-yl)-2-(4-fluorophenyl)propan-2-ol], the inhibition at 1 µM came out at 98% in assay [1], 92% in assay [2], 76% in assay [3] and 100% in assay [4].
As for `Cc1ccc2c(c1)c1c(n2CC(=O)NC(C)C)CCN(C)CC1` [Compound No. 54, 2-(2,3,4,5-tetrahydro-3,9-dimethylazepino[4,5-b]indol-6(1H)-yl)-N-isopropylacetamide], the inhibition at 1 µM in assay [1] is 18%; in assay [2], -3%; in assay [3], -1%; in assay [4], -10%.
For the compound `Cc1ccc2c(c1)c1c(n2/C=C/c2ccc(Cl)cc2)CCN(C)CC1` [Compound No. 235, (E)-6-(4-chlorostyryl)-3,9-dimethyl-1,2,3,4,5,6-hexahydroazepino[4,5-b]indole], the inhibition at 1 µM in assay [1] was determined as 97%; in assay [2], 94%; in assay [3], 95%; in assay [4], 97%.
For `CN1CCc2c(n(CCc3ccccn3)c3ccc(Cl)cc23)CC1` [Compound No. 8, 9-chloro-1,2,3,4,5,6-hexahydro-3-methyl-6-(2-(pyridin-2-yl)ethyl)azepino[4,5-b]indole], the inhibition at 1 µM in assay [1] came to 97%; in assay [2], 68%; in assay [3], 91%; in assay [4] it was 100%.
Taken in the same sequence, the figures for `C/C(=C\n1c2c(c3cc(Cl)ccc31)CCN(C)CC2)c1ccc(Cl)cc1` [Compound No. 36, 9-chloro-6-((E)-2-(4-chlorophenyl)prop-1-enyl)-1,2,3,4,5,6-hexahydro-3-methylazepino[4,5-b]indole] were 88%, 104%, 95% and 99%.
With `CN1CCc2c(n(CC(=O)Nc3ccc(F)cc3)c3ccc(Cl)cc23)CC1` [Compound No. 37, 2-(9-chloro-2,3,4,5-tetrahydro-3-methylazepino[4,5-b]indol-6(1H)-yl)-N-(4-fluorophenyl) acetamide], the inhibition at 1 µM was found to be 13% in assay [1], 4% in assay [2], 14% in assay [3] and 12% in assay [4].
Taken in the same sequence, the figures for `CN1CCc2c(n(CC(O)c3ccc(F)c(F)c3)c3ccc(Cl)cc23)CC1` (stereo not shown) [Compound No. 58, 2-(9-chloro-2,3,4,5-tetrahydro-3-methylazepino[4,5-b]indol-6(1H)-yl)-1-(3,4-difluorophenyl)ethanol] were 98%, 91%, 88% and 99%.
Taken in the same sequence, the figures for `CN1CCc2c(n(CCc3ccccc3F)c3ccc(Cl)cc23)CC1` [Compound No. 61, 6-(2-fluorophenethyl)-9-chloro-1,2,3,4,5,6-hexahydro-3-methylazepino[4,5-b]indole] were 97%, 89%, -5% and 5%.
The corresponding values for `C/C(=C\n1c2c(c3cc(C)ccc31)CCN(C)CC2)c1ccc(F)cc1` [Compound No. 34, 6-((E)-2-(4-fluorophenyl)prop-1-enyl)-1,2,3,4,5,6-hexahydro-3,9-dimethylazepino[4,5-b]indole] are 95%, 103%, 100% and 103%.
As to `CN1CCc2c(n(CC(O)c3ccccc3)c3ccc(Cl)cc23)CC1` (stereo not shown) [Compound No. 24, 2-(9-chloro-2,3,4,5-tetrahydro-3-methylazepino[4,5-b]indol-6(1H)-yl)-1-phenylethanol], the inhibition at 1 µM in assay [1] amounted to 100%; in assay [2], 58%; in assay [3] it was 85%; in assay [4], 99%.
The corresponding values for `Cc1ccc2c(c1)c1c(n2CC(O)c2ccncc2)CCN(C)CC1` (stereo not shown) [Compound No. 43, 2-(2,3,4,5-tetrahydro-3,9-dimethylazepino[4,5-b]indol-6(1H)-yl)-1-(pyridin-4-yl)ethanol] are 100%, 30%, 70% and 48%.
`Cc1ccc2c(c1)c1c(n2CCc2ccncc2)CCN(C)CC1` [Compound No. 6, 1,2,3,4,5,6-hexahydro-3,9-dimethyl-6-(2-(pyridin-4-yl)ethyl)azepino[4,5-b]indole]: the inhibition at 1 µM in assay [1] was 103%; in assay [2], 52%; in assay [3], 92%; in assay [4], 82%.
Take `CN1CCc2c(n(CC(=O)Nc3ccccc3)c3ccc(Cl)cc23)CC1` [Compound No. 73, 2-(9-chloro-2,3,4,5-tetrahydro-3-methylazepino[4,5-b]indol-6(1H)-yl)-N-phenylacetamide]: the inhibition at 1 µM was 18% in assay [1], -5% in assay [2], 1% in assay [3] and 0% in assay [4].
Consider `Cc1ccc2c(c1)c1c(n2CCc2ccccn2)CCN(C)CC1` [Compound No. 9, 1,2,3,4,5,6-hexahydro-3,9-dimethyl-6-(2-(pyridin-2-yl)ethyl)azepino[4,5-b]indole], for which the inhibition at 1 µM came to 99% in assay [1], 44% in assay [2], 80% in assay [3] and 81% in assay [4].
